Measured values reported in ChEMBL document CHEMBL5303304, “EUbOPEN Chemogenomics Library - IncuCyte” (2023).

Columns and labels:
Type in all cases: toxicity, cell-based
U2OS = experiment: Incucyte cell viability with U2OS; conditions: human, 10 µM, compound concentration 10 uM
Fibroblast = experiment: Incucyte cell viability with human fibroblast; conditions: 10 µM, compound concentration 10 uM
HEK-293T = experiment: Incucyte cell viability with HEK293T; conditions: human, 10 µM, compound concentration 10 uM
Note: unitless GR value; below 1 slowed growth and below 0 cell loss.

| SMILES | Growth Rate (U2OS; 0 h, replicate number 1) | Growth Rate (Fibroblast; 0 h, replicate number 2) | Growth Rate (Fibroblast; 18 h, replicate number 1) | Growth Rate (Fibroblast; 24 h, replicate number 1) | Growth Rate (Fibroblast; 6 h, replicate number 2) | Growth Rate (Fibroblast; 12 h, replicate number 2) | Growth Rate (Fibroblast; 18 h, replicate number 2) | Growth Rate (U2OS; 24 h, replicate number 2) | Growth Rate (U2OS; 6 h, replicate number 2) | Growth Rate (U2OS; 12 h, replicate number 2) | Growth Rate (U2OS; 18 h, replicate number 2) | Growth Rate (HEK-293T; 0 h, replicate number 2) | Growth Rate (U2OS; 6 h, replicate number 1) | further results |
| --- | --- | --- | --- | --- | --- | --- | --- | --- | --- | --- | --- | --- | --- | --- |
| CC(C)(C#N)c1cc(Cn2cncn2)cc(C(C)(C)C#N)c1 [ANASTROZOLE] | -0.51 | -1 | 0.84 | 0.63 | – | – | – | – | – | – | – | – | – | Growth Rate (Fibroblast; 12 h, replicate number 1): -1 |
| CNc1ncc2cc(-c3ccc(-c4ncccc4F)cc3Cl)c(=O)n(C[C@H]3OC[C@H](N)CO3)c2n1 | – | – | 0.78 | 0.8 | -0.26 | -0.06 | 0.35 | – | – | – | – | – | – | Growth Rate (Fibroblast; 6 h, replicate number 1): 0.02; Growth Rate (Fibroblast; 12 h, replicate number 1): 0.37; Growth Rate (Fibroblast; 24 h, replicate number 2): 0.66; Growth Rate (HEK-293T; 0 h, replicate number 1): -0.97 |
| CC(C)N(CCCCOCC(=O)O)c1cnc(-c2ccccc2)c(-c2ccccc2)n1 | – | -0.09 | – | – | – | – | – | 0.99 | – | – | – | – | – | – |
| COc1cc(Nc2cnc(C#N)c(O[C@H](C)CN(C)C)n2)ncc1-c1cnn(C)c1 | -1 | – | – | – | – | – | – | 0.43 | 0.42 | 0.82 | 0.67 | -0.51 | – | Growth Rate (U2OS; 0 h, replicate number 2): 0.66; Growth Rate (HEK-293T; 0 h, replicate number 1): -1; Growth Rate (HEK-293T; 6 h, replicate number 1): 0.63; Growth Rate (HEK-293T; 6 h, replicate number 2): -0.18; Growth Rate (HEK-293T; 12 h, replicate number 1): -0.1; Growth Rate (HEK-293T; 12 h, replicate number 2): -0.4; Growth Rate (HEK-293T; 18 h, replicate number 1): -0.17; Growth Rate (HEK-293T; 18 h, replicate number 2): -0.32; Growth Rate (HEK-293T; 24 h, replicate number 1): -0.06; Growth Rate (HEK-293T; 24 h, replicate number 2): -0.22 |
| COc1cc(C)c(S(=O)(=O)N(C)CCC(=O)N[C@H]2CC[C@@H](N3CCC4CN(C)CC4C3)CC2)c(C)c1.Cl.Cl (some centres undefined) | – | -0.7 | – | – | – | – | – | – | 0.87 | 0.88 | 0.99 | – | 0.78 | Growth Rate (U2OS; 12 h, replicate number 1): 0.97; Growth Rate (Fibroblast; 6 h, replicate number 1): 0.39 |
| c1ccc(Cn2c(N3CCNCC3)nc3ccccc32)cc1 [LERISETRON] | – | – | – | – | -0.44 | 0.34 | 0.56 | 0.99 | 0.64 | – | 0.94 | – | 0.7 | Growth Rate (Fibroblast; 0 h, replicate number 1): -0.1; Growth Rate (Fibroblast; 24 h, replicate number 2): 0.68 |
| O=C(O)c1cccc(C2=C(c3cc(Cl)ccc3OCc3ccc(F)cc3F)CCC2)n1 | – | – | – | – | – | – | – | – | – | 1 | – | – | – | Growth Rate (HEK-293T; 0 h, replicate number 1): 0.79 |
| Cl.Cl.Nc1nccc(-c2c(-c3ccc(F)cc3)ncn2C2CCCCC2)n1 | – | – | – | – | – | – | – | 0.81 | – | – | 0.84 | 0.73 | 0.19 | Growth Rate (U2OS; 12 h, replicate number 1): 0.8; Growth Rate (U2OS; 18 h, replicate number 1): 0.93; Growth Rate (U2OS; 24 h, replicate number 1): 0.95; Growth Rate (HEK-293T; 6 h, replicate number 1): 0.63; Growth Rate (HEK-293T; 6 h, replicate number 2): 0.51; Growth Rate (HEK-293T; 12 h, replicate number 1): 0.99; Growth Rate (HEK-293T; 12 h, replicate number 2): 0.49; Growth Rate (HEK-293T; 18 h, replicate number 1): 0.99; Growth Rate (HEK-293T; 18 h, replicate number 2): 0.44; Growth Rate (HEK-293T; 24 h, replicate number 1): 0.95; Growth Rate (HEK-293T; 24 h, replicate number 2): 0.51 |
| CNc1oc(-c2cccc3ccccc23)nc1C#N | – | – | – | – | – | – | – | 0.99 | – | 0.93 | 0.92 | -0.92 | – | – |
| N#C/C(=C\c1ccc(O)c(O)c1)C(=O)OCCc1cccs1 | – | – | 1 | 0.86 | -0.28 | 0.78 | 0.58 | 0.93 | – | 0.63 | 0.94 | – | – | Growth Rate (U2OS; 0 h, replicate number 2): 0.41; Growth Rate (U2OS; 24 h, replicate number 1): 0.8; Growth Rate (Fibroblast; 24 h, replicate number 2): 0.54 |
| CCN1C(=O)C(c2cccc(C(=O)O)c2)C(=O)N(c2ccccc2)c2cc(C(F)(F)F)ccc21 (centres undefined) | 0.96 | 0.93 | 0.92 | 0.95 | -0.94 | 0.41 | 0.96 | – | 0.97 | 0.94 | 0.95 | – | 0.49 | Growth Rate (U2OS; 0 h, replicate number 2): 0.93; Growth Rate (U2OS; 12 h, replicate number 1): 0.8; Growth Rate (U2OS; 24 h, replicate number 1): 0.88; Growth Rate (Fibroblast; 0 h, replicate number 1): -1; Growth Rate (Fibroblast; 6 h, replicate number 1): 0.7; Growth Rate (Fibroblast; 12 h, replicate number 1): 0.85 |
| CC(C)(O)[C@H](F)CN1Cc2cc(NC(=O)c3cnn4cccnc34)c(N3CCOCC3)cc2C1=O | -0.84 | – | – | – | – | – | – | 0.93 | – | 0.95 | 0.95 | 0.15 | – | Growth Rate (HEK-293T; 6 h, replicate number 1): 0.89; Growth Rate (HEK-293T; 6 h, replicate number 2): 0.72; Growth Rate (HEK-293T; 12 h, replicate number 1): 1; Growth Rate (HEK-293T; 12 h, replicate number 2): 0.86; Growth Rate (HEK-293T; 18 h, replicate number 2): 0.82; Growth Rate (HEK-293T; 24 h, replicate number 1): 0.96; Growth Rate (HEK-293T; 24 h, replicate number 2): 0.85 |
